# Assay results: patent US20240327364A1, “THERAPEUTIC TARGETING OF GPR68 TO INDUCE FERROPTOSIS” (University Of Maryland, Baltimore, priority 2023, published 2024)
# What was measured:
# [1] = tested on: U87; assay: Western blot (TFRC, HO-1, cleaved caspase 3); format: cell-based, human
# Description: Using Pierce™ BCA Protein Assay Kit (ThermoFisher Scientific™), protein concentrations were determined for each sample following manufacturing protocol. Gel electrophoresis was conducted on NuPAGE™ 4-12% Bis-Tris gels (Invitrogen™) using 20 ug of total protein per sample. Proteins were transferred to PVDF membranes by semi-dry transfer. Membranes were blocked using Intercept® (PBS) Blocking Buffer (LI-COR™) for one hour at room temperature on a tilting shaker. Primary antibodies in 5% non-fat dry milk were added to the membranes for overnight incubation at 4° C. on a rotating shaker. Primary antibodies included transferrin receptor (TFRC), heme-oxygenase 1 (HO-1), and cleaved caspase 3 with GAPDH and α-tubulin used as normalization controls. The next day, membranes were washed in three, five-minute intervals with PBST (Tween 0.5%). Corresponding secondary HRP-conjugated antibodies in 5% non-fat dry milk were added to incubate at room temperature for one hour on a tilting shaker. The membranes were washed with PBST in four, five-minute intervals before protein visualization using Radiance Q (Azure Biosystems™) on Bio-Rad™ ChemiDoc™ MP Imaging System. Protein quantification was completed in triplicate using Fiji software package.
# [2] = tested on: ALI induced by HTV, LPS and both; assay: HTV mechanical ventilation / LPS acute lung injury; format: in vivo, C57Bl mice
# Excerpt: FIG. 38A through FIG. 38D: High-tidal volume (HTV) mechanical ventilation causes ALI and exacerbates ALI caused by LPS (“two-hit”) in C57Bl mice, and OGM2 attenuates these effects. […] Lungs from mice treated with OGM2 are marked with “+”. […] Here, OGM and OGM8345=OGM2.
# [3] = biological target: T1, ABL1(T315I)-nonphosphorylated (Homo sapiens, UniProt P00519, T315I); assay: KinomeScan; format: binding; conditions: read-out: % Control
# T1 construct: purchased DiscoveRx
# [4] = biological target: T2, BMX (Homo sapiens, UniProt P51813); assay: KinomeScan; format: binding; conditions: read-out: % Control
# T2 construct: purchased DiscoveRx (Fremont, CA)
# [5] = biological target: CSNK1A1L (Homo sapiens, UniProt Q8N752); assay: KinomeScan; format: binding; conditions: read-out: % Control
# [6] = biological target: T3, EIF2AK1 (Homo sapiens, UniProt Q9BQI3); assay: KinomeScan; format: binding; conditions: read-out: % Control
# T3 construct: purchased DiscoveRx (Fremont, CA)
# [7] = biological target: T4, FGFR2 (Homo sapiens, UniProt P21802); assay: KinomeScan; format: binding; conditions: read-out: % Control
# T4 construct: purchased DiscoveRx (Fremont, CA)
# [8] = biological target: T5, FLT3(D835Y) (Homo sapiens, UniProt P36888, D835Y); assay: KinomeScan; format: binding; conditions: read-out: % Control
# T5 construct: purchased DiscoveRx (Fremont, CA)
# [9] = biological target: T6, FLT3(K663Q) (Homo sapiens, UniProt P36888, K663Q); assay: KinomeScan; format: binding; conditions: read-out: % Control
# T6 construct: purchased DiscoveRx (Fremont, CA)
# [10] = biological target: T7, GCN2(Kin.Dom.2, S808G) (Homo sapiens, UniProt Q9P2K8, S808G); assay: KinomeScan; format: binding; conditions: read-out: % Control
# T7 construct: GCN2(Kin.Dom.2, S808G); purchased DiscoveRx (Fremont, CA)
# [11] = biological target: T8, KIT(V559D, T670I) (Homo sapiens, UniProt P10721, T670I/V559D); assay: KinomeScan; format: binding; conditions: read-out: % Control
# T8 construct: purchased DiscoveRx
# [12] = biological target: T9, MRCKA (Homo sapiens, UniProt Q5VT25); assay: KinomeScan; format: binding; conditions: read-out: % Control
# T9 construct: purchased DiscoveRx
# [13] = biological target: T10, MYLK4 (Homo sapiens, UniProt Q86YV6); assay: KinomeScan; format: binding; conditions: read-out: % Control
# T10 construct: purchased DiscoveRx
# [14] = biological target: T11, NIM1 (Homo sapiens, UniProt Q8IY84); assay: KinomeScan; format: binding; conditions: read-out: % Control
# T11 construct: purchased DiscoveRx
# [15] = biological target: T12, PFPK5(P. falciparum) (Plasmodium falciparum, UniProt P61075); assay: KinomeScan; format: binding; conditions: read-out: % Control
# T12 construct: purchased DiscoveRx (Fremont, CA)
# [16] = biological target: T13, PIK3CA(E545K) (Homo sapiens, UniProt P42336, E545K); assay: KinomeScan; format: binding; conditions: read-out: % Control
# T13 construct: purchased DiscoveRx (Fremont, CA)
# [17] = biological target: T14, PKN2 (Homo sapiens, UniProt Q16513); assay: KinomeScan; format: binding; conditions: read-out: % Control
# T14 construct: purchased DiscoveRx (Fremont, CA)
# [18] = biological target: T15, PRKCE (Homo sapiens, UniProt Q02156); assay: KinomeScan; format: binding; conditions: read-out: % Control
# T15 construct: purchased DiscoveRx (Fremont, CA)
# [19] = biological target: T16, RIPK4 (Homo sapiens, UniProt P57078); assay: KinomeScan; format: binding; conditions: read-out: % Control
# T16 construct: purchased DiscoveRx (Fremont, CA)
# [20] = biological target: T17, TYK2(JH2domain-pseudokinase) (Homo sapiens, UniProt P29597); assay: KinomeScan; format: binding; conditions: read-out: % Control
# T17 construct: TYK2(JH2domain-pseudokinase); purchased DiscoveRx
# [21] = biological target: T18, ADRA1A (Homo sapiens, UniProt P35348); assay: GPCR Profiler; format: cell-based
# T18 construct: host or cells: Chem-1 cells with promiscuous Gα15
# [22] = biological target: T19, CXCR6 (Homo sapiens, UniProt O00574); assay: GPCR Profiler; format: cell-based
# T19 construct: host or cells: Chem-1 cells with Gα15
# [23] = biological target: T20, EP1 (Homo sapiens, UniProt P34995); assay: GPCR Profiler; format: cell-based
# T20 construct: host or cells: Chem-1 cells expressing Gα15
# [24] = biological target: T21, mGlu1 (Homo sapiens, UniProt Q13255); assay: GPCR Profiler; format: cell-based
# T21 construct: host or cells: Chem-1 cells expressing Gα15
# [25] = biological target: T22, PAC1 (Homo sapiens, UniProt P41586); assay: GPCR Profiler; format: cell-based
# T22 construct: host or cells: Chem-1 cells with Gα15
# [26] = biological target: T23, PTH2 (Homo sapiens, UniProt P49190); assay: GPCR Profiler; format: cell-based
# T23 construct: host or cells: Chem-1 cells with Gα15
# [27] = biological target: T24, sst4 (Homo sapiens, UniProt P31391); assay: GPCR Profiler; format: cell-based
# T24 construct: host or cells: Chem-1 cells with Gα15
# T24 sequence (P31391 whole entry, species assumed): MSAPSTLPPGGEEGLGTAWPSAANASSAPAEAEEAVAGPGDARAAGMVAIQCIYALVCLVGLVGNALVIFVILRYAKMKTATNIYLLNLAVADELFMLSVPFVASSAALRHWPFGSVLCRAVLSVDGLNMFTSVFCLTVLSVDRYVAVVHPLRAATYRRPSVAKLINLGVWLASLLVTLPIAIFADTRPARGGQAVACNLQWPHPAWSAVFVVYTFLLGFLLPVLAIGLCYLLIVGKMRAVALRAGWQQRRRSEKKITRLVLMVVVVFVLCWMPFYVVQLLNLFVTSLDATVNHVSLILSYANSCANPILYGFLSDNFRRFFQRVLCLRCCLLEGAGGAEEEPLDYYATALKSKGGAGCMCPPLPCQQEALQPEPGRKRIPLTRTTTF
# T18 sequence (P35348 whole entry): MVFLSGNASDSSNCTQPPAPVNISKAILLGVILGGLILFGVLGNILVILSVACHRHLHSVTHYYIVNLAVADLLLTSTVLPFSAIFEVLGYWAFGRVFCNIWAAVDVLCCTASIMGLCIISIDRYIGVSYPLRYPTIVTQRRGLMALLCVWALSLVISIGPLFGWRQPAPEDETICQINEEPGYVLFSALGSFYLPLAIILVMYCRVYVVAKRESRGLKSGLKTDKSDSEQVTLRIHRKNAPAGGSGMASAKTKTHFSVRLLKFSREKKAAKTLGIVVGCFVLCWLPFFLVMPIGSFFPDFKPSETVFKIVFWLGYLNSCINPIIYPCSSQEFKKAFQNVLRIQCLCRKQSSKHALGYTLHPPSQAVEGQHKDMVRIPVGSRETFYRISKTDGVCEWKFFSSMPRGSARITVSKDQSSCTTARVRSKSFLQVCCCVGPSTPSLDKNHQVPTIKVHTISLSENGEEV
# T23 sequence (P49190 25-550): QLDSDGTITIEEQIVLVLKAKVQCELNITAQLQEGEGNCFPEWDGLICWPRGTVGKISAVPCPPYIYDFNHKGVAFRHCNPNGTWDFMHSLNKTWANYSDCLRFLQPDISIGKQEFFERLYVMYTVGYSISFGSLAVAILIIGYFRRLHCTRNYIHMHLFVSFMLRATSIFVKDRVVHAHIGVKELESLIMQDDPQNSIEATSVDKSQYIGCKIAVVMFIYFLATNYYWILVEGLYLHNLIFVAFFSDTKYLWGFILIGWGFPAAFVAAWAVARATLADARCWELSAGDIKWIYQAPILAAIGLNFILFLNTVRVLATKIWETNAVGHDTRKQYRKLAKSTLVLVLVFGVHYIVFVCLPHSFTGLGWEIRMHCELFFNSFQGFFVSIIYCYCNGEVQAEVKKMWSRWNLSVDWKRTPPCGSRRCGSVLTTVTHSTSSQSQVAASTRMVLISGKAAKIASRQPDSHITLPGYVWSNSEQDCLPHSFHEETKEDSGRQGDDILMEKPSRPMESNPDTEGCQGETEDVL
# T21 sequence (Q13255 19-1194): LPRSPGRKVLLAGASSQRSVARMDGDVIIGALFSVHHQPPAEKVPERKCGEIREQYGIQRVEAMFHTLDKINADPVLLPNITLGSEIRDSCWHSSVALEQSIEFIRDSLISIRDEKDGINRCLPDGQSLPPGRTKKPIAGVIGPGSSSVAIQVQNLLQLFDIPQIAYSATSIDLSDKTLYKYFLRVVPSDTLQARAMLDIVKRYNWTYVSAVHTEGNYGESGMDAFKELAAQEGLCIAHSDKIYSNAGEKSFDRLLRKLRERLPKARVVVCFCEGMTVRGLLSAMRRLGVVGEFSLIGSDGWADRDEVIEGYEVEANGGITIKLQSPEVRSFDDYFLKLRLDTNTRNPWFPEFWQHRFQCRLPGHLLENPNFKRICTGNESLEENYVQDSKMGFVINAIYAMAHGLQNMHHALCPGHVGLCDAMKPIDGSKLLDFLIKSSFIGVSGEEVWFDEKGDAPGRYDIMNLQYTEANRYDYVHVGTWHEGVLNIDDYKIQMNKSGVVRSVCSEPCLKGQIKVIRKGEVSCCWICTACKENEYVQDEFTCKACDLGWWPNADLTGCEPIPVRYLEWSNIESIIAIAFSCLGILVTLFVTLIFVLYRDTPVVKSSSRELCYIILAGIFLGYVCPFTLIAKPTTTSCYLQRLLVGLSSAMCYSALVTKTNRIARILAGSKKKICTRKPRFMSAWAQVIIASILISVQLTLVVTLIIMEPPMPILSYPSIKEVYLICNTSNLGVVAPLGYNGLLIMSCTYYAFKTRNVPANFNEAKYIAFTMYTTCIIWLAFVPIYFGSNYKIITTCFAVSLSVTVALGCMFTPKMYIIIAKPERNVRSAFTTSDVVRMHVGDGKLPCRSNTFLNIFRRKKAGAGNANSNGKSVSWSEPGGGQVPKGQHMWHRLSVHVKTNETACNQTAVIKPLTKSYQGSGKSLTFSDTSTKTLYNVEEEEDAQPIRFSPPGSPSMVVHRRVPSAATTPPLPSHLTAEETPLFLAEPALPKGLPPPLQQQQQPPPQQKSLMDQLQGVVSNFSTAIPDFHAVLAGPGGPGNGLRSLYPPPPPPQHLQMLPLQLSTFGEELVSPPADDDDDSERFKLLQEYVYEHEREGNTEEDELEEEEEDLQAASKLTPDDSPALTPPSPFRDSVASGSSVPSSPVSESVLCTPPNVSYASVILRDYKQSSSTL
# T20 sequence (P34995 whole entry): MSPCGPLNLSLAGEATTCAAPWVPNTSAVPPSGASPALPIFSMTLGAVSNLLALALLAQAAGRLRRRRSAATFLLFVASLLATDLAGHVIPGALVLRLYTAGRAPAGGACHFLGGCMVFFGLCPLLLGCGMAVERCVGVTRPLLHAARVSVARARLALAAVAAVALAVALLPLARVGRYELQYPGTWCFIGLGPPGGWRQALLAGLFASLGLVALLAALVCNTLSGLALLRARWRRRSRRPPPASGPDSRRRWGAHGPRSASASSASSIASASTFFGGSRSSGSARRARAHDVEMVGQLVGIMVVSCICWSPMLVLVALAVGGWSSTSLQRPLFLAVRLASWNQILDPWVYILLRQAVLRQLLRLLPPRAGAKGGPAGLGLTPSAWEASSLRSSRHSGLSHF
# T22 sequence (P41586 21-468): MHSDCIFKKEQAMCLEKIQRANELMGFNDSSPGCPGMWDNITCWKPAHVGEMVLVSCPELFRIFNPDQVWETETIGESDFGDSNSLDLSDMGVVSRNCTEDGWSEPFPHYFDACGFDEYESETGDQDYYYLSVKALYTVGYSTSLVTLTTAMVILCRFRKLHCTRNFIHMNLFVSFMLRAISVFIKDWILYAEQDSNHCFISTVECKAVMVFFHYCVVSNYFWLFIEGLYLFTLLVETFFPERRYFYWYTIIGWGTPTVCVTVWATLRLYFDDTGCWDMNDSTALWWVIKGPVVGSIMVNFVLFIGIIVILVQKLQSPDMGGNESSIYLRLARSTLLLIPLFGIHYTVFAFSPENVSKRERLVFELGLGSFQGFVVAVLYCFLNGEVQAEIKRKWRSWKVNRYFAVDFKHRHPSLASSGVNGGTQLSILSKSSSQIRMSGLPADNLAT
# T19 sequence (O00574 whole entry, species assumed): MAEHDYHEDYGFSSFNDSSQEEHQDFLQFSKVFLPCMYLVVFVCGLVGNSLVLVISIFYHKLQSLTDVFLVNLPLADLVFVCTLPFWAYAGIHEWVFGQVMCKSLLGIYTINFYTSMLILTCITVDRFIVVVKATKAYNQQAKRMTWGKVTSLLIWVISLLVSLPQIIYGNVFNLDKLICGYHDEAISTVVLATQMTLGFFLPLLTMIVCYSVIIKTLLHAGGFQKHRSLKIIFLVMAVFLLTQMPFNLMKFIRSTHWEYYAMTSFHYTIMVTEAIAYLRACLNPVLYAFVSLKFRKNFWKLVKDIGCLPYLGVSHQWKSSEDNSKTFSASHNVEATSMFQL
# T16 sequence (P57078 whole entry): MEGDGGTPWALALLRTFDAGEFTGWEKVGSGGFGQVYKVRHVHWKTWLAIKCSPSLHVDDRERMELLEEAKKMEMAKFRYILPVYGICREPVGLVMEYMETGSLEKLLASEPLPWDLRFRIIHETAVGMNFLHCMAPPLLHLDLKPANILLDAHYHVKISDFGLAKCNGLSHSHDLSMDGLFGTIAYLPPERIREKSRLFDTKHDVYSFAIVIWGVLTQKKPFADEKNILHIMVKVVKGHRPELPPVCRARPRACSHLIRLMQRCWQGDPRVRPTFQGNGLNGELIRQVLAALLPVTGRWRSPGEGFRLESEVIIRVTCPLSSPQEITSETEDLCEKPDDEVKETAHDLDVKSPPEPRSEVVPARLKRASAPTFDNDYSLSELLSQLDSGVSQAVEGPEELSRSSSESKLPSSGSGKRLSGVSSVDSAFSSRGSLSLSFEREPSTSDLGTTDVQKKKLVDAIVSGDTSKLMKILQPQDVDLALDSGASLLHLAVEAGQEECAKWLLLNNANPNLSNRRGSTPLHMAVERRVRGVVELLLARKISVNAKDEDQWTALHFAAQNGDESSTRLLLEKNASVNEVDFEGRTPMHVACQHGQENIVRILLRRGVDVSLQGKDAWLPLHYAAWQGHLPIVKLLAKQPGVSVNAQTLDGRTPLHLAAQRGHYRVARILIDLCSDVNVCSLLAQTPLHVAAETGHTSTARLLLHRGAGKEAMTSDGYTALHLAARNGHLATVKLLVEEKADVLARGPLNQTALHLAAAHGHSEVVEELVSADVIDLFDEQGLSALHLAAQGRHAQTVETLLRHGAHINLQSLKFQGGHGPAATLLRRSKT
# T10 sequence (Q86YV6 whole entry): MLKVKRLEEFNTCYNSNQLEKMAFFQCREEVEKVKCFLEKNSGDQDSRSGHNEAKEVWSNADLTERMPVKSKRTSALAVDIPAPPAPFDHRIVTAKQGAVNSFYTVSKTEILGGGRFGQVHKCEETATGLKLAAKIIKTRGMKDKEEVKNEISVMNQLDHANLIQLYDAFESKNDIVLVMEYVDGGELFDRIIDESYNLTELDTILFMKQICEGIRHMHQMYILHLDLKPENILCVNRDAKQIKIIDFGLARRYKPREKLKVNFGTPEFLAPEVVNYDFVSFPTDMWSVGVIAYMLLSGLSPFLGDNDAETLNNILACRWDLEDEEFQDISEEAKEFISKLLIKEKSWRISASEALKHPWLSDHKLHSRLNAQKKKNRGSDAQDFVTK
structure (smiles),measurement,setting,value
CCc1ccc2c(c1)C1(NN=C(c3ccccc3)S1)C(=O)N2 (centres unmarked) [OGM2],cleaved caspase 3 level,[1],did not increase
same,protein levels of TFRC and HO-1,[1],significantly increased
same,lung vascular leak (Evans blue),[2]; OGM2 40 mg/kg ip 15 minutes before HTV,significantly attenuated lung vascular leak
same,BAL cell count,"[2]; mouse, in vivo",significantly attenuated the rise
same,BAL protein concentration,"[2]; mouse, in vivo",significantly attenuated the rise
same,inflammatory cytokine mRNA expression,"[2]; mouse, in vivo",blunted the rise
"CCc1ccc2c(c1)C1(NN=C(c3cccc4ccccc34)S1)C(=O)N2 (centres unmarked) [OGM1, 5-ethyl-5′-naphthalen-1-ylspiro[1H-indole-3,2′-3H-1,3,4-thiadiazole]-2-one]",remaining binding at 10 µM,[3],73%
same,remaining binding at 10 µM,[4],100%
same,remaining binding at 10 µM,[5],100%
same,remaining binding at 10 µM,[6],100%
same,remaining binding at 10 µM,[7],100%
same,remaining binding at 10 µM,[8],100%
same,remaining binding at 10 µM,[9],100%
same,remaining binding at 10 µM,[10],100%
same,remaining binding at 10 µM,[11],77%
same,remaining binding at 10 µM,[12],78%
same,remaining binding at 10 µM,[13],98%
same,remaining binding at 10 µM,[14],96%
same,remaining binding at 10 µM,[15],82%
same,remaining binding at 10 µM,[16],100%
same,remaining binding at 10 µM,[17],100%
same,remaining binding at 10 µM,[18],68%
same,remaining binding at 10 µM,[19],81%
same,remaining binding at 10 µM,[20],100%
same,Antagonism,[21]; 10 uM,3
same,Agonism,[21]; 12.5 uM,1.9
same,Antagonism,[22]; 10 uM,−14
same,Agonism,[22]; 12.5 uM,0
same,Antagonism,[23]; 10 uM,−6
same,Agonism,[23]; 12.5 uM,0.2
same,Antagonism,[24]; 10 uM,−12.7
same,Agonism,[24]; 12.5 uM,1.1
same,Antagonism,[25]; 10 uM,5.8
same,Agonism,[25]; 12.5 uM,0.9
same,Antagonism,[26]; 10 uM,−19.2
same,Agonism,[26]; 12.5 uM,1.1
same,Antagonism,[27]; 10 uM,−2.6
same,Agonism,[27]; 12.5 uM,−1.1
